Assay results: ChEMBL document CHEMBL1140824, “Hepatoselectivity of statins: design and synthesis of 4-sulfamoyl pyrroles as HMG-CoA reductase inhibitors” (Bioorg Med Chem Lett, 2008)

Key:
[1] = molecular target: T1, 3-hydroxy-3-methylglutaryl-coenzyme A reductase (Rattus norvegicus, UniProt P51639); assay: Inhibition of rat microsomal HMGCoA reductase
T1 sequence (P51639 whole entry): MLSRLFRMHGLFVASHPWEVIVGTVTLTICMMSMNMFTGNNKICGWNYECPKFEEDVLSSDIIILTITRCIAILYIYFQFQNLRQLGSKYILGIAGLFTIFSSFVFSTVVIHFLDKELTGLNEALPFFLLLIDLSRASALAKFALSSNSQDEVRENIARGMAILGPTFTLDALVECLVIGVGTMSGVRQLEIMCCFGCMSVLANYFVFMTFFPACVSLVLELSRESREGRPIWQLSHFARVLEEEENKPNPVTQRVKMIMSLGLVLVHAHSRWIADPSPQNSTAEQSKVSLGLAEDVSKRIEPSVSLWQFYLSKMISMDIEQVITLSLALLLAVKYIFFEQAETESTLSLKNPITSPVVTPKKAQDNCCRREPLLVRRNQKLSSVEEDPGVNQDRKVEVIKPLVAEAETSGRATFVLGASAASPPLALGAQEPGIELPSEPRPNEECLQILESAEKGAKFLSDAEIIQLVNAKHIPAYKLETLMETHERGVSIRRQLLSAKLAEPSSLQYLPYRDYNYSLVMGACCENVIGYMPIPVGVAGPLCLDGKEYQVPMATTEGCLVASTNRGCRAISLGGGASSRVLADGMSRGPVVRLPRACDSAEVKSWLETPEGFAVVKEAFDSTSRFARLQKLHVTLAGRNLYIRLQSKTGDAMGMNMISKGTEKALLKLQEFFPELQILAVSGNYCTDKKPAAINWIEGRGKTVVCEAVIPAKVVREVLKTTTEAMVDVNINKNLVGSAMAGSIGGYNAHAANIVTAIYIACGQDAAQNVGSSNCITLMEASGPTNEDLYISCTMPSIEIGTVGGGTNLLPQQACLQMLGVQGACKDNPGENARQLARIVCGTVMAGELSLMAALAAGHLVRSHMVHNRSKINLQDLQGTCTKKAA

L6 = assay: Inhibition of cholesterol synthesis in rat L6 myocyte; type: functional, cell-based
Hepatocyte [2] = assay: Selectivity, ratio of IC50 for rat L6 myocyte to IC50 for rat hepatocyte; type: functional
Hepatocyte [3] = assay: Inhibition of cholesterol synthesis in rat hepatocyte; type: functional, cell-based
Mus musculus = assay: Inhibition of acute cholesterol synthesis in mouse at 1 mg/kg; type: functional; settings: read-out: Inhibition
Syrian golden hamster = assay: Reduction of LDL cholesterol level in syrian golden hamster plasma; type: functional, Mesocricetus auratus
[4] = Cmax in human; type: ADME, organism-based; settings: in vivo
[5] = Ratio of Cmax for human to IC50 for rat L6 myocyte; type: functional
Homo sapiens = species: Homo sapiens; assay: Incidence of myalgia in human; type: ADME, organism-based; settings: in vivo

Row | SMILES | IC50 [1] | IC50 (L6) | Ratio IC50 (Hepatocyte [2]) | IC50 (Hepatocyte [3]) | inhibition in vivo at 1 mg/kg (Mus musculus) | Inhibition (Syrian golden hamster) | Cmax [4] | Ratio [5] | Activity (Homo sapiens)
1 | CC(C)c1c(S(=O)(=O)N2CCc3ccccc3C2)c(-c2ccc(F)cc2)c(-c2ccc(F)cc2)n1CC[C@@H](O)C[C@@H](O)CC(=O)[O-].[Na+] | 8.4 nM | 2500 nM | 984 | 2.5 nM |  |  |  |  | 
2 | CC(C)c1c(S(=O)(=O)Nc2ccccc2)c(-c2ccc(F)cc2)c(-c2ccc(F)cc2)n1CC[C@@H](O)C[C@@H](O)CC(=O)[O-].[Na+] | 2 nM | 45 nM | 45 | 0.96 nM |  |  |  |  | 
3 | CC(C)c1c(S(=O)(=O)Nc2cccc(O)c2)c(-c2ccc(F)cc2)c(-c2ccc(F)cc2)n1CC[C@@H](O)C[C@@H](O)CC(=O)[O-].[Na+] | 9.4 nM | 2500 nM | 6250 | 0.4 nM | 44.2% |  |  |  | 
4 | CC(C)c1c(S(=O)(=O)NCc2ccccc2)c(-c2ccc(F)cc2)c(-c2ccc(F)cc2)n1CC[C@@H](O)C[C@@H](O)CC(=O)[O-].[Na+] | 13 nM | 2200 nM | 5945 | 0.37 nM | 58.6% |  |  |  | 
5 | CC(C)c1c(S(=O)(=O)N2CCSCC2)c(-c2ccc(F)cc2)c(-c2ccc(F)cc2)n1CC[C@@H](O)C[C@@H](O)CC(=O)[O-].[Na+] | 9.7 nM | 5700 nM | 1748 | 3.3 nM | 15% |  |  |  | 
6 | CC(C)c1c(S(=O)(=O)N2CCC2)c(-c2ccccc2)c(-c2ccc(F)cc2)n1CC[C@@H](O)C[C@@H](O)CC(=O)[O-].[Na+] | 1.8 nM | 2150 nM | 1954 | 1.1 nM | 34.8% |  |  |  | 
7 | CC(C)c1c(S(=O)(=O)N(C)C)c(-c2ccc(F)cc2)c(-c2ccc(F)cc2)n1CC[C@@H](O)C[C@@H](O)CC(=O)[O-].[Na+] | 6.1 nM | 1400 nM | 1866 | 0.75 nM | 58.8% | 30% |  |  | 
8 | CC(C)c1c(S(=O)(=O)Nc2ccc(S(N)(=O)=O)cc2)c(-c2ccc(F)cc2)c(-c2ccc(F)cc2)n1CC[C@@H](O)C[C@@H](O)CC(=O)[O-].[Na+] | 4.9 nM | 4380 nM | 1622 | 2.7 nM | 15% |  |  |  | 
9 | CC(C)c1c(S(=O)(=O)Nc2cccc(C(N)=O)c2)c(-c2ccc(F)cc2)c(-c2ccc(F)cc2)n1CC[C@@H](O)C[C@@H](O)CC(=O)[O-].[Na+] | 18 nM | 36000 nM | 7340 | 5 nM |  |  |  |  | 
10 | CC(C)c1c(S(=O)(=O)N2CCOCC2)c(-c2ccccc2)c(-c2ccc(F)cc2)n1CC[C@@H](O)C[C@@H](O)CC(=O)[O-].[Na+] |  | 10000 nM | 12469 | 0.8 nM | 55.6% | 11% |  |  | 
11 | CC(C)c1c(S(=O)(=O)Nc2cccc(CC(N)=O)c2)c(-c2ccc(F)cc2)c(-c2ccc(F)cc2)n1CC[C@@H](O)C[C@@H](O)CC(=O)[O-].[Na+] | 1 nM | 10000 nM | 7299 | 1.4 nM |  |  |  |  | 
12 | CC(C)c1c(S(=O)(=O)N2CCN(C)CC2)c(-c2ccccc2)c(-c2ccc(F)cc2)n1CC[C@@H](O)C[C@@H](O)CC(=O)[O-].[Na+] | 2.7 nM | 10500 nM | 3559 | 3 nM |  |  |  |  | 
13 | CC(C)c1c(S(=O)(=O)N(C)Cc2ccccc2)c(-c2ccccc2)c(-c2ccc(F)cc2)n1CC[C@@H](O)C[C@@H](O)CC(=O)[O-].[Na+] | 8.5 nM | 140 nM | 566 | 0.25 nM |  |  |  |  | 
14 | CC(C)c1c(S(=O)(=O)Nc2ccccc2)c(-c2ccccc2)c(-c2ccc(F)cc2)n1CC[C@@H](O)C[C@@H](O)CC(=O)[O-].[Na+] | 9 nM | 20 nM | 34 | 0.57 nM | 49.2% |  |  |  | 
15 | CC(C)c1c(S(=O)(=O)Nc2ccc(C(N)=O)cc2)c(-c2ccc(F)cc2)c(-c2ccc(F)cc2)n1CC[C@@H](O)C[C@@H](O)CC(=O)[O-].[Na+] | 5.8 nM | 2340 nM | 1300 | 1.8 nM | 34.4% |  |  |  | 
16 | CC(C)c1c(S(=O)(=O)N(C)Cc2ccccc2)c(-c2ccc(F)cc2)c(-c2ccc(F)cc2)n1CC[C@@H](O)C[C@@H](O)CC(=O)[O-].[Na+] | 8 nM | 550 nM | 797 | 0.69 nM |  |  |  |  | 
17 | CC(C)c1c(S(=O)(=O)N2CCCC2)c(-c2ccccc2)c(-c2ccc(F)cc2)n1CC[C@@H](O)C[C@@H](O)CC(=O)[O-].[Na+] | 2.6 nM | 5200 nM | 10400 | 0.5 nM | 75.9% | 38% |  |  | 
18 | CC(C)c1c(S(=O)(=O)N2CCCCC2)c(-c2ccccc2)c(-c2ccc(F)cc2)n1CC[C@@H](O)C[C@@H](O)CC(=O)[O-].[Na+] | 2.9 nM | 7000 nM | 10479 | 0.67 nM | 56% |  |  |  | 
19 | CC(C)c1c(S(=O)(=O)N(C)C)c(-c2ccccc2)c(-c2ccc(F)cc2)n1CC[C@@H](O)C[C@@H](O)CC(=O)[O-].[Na+] | 6.5 nM | 1380 nM | 3066 | 0.45 nM |  |  |  |  | 
20 | CC(C)c1c(S(=O)(=O)Nc2ccc(F)cc2)c(-c2ccc(F)cc2)c(-c2ccc(F)cc2)n1CC[C@@H](O)C[C@@H](O)CC(=O)[O-].[Na+] | 15 nM | 60 nM | 127 | 0.47 nM | 51.8% |  |  |  | 
21 | CNS(=O)(=O)c1c(-c2ccc(F)cc2)c(-c2ccc(F)cc2)n(CC[C@@H](O)C[C@@H](O)CC(=O)O)c1C(C)C | 27 nM |  |  | 0.22 nM | 33% |  |  |  | 
22 | CC(C)c1c(C(=O)Nc2ccccc2)c(-c2ccccc2)c(-c2ccc(F)cc2)n1CC[C@@H](O)C[C@@H](O)CC(=O)O [ATORVASTATIN] |  | 142 nM |  | 0.99 nM | 75.2% |  |  |  | 
23 | COCc1c(C(C)C)nc(C(C)C)c(/C=C/[C@@H](O)C[C@@H](O)CC(=O)O)c1-c1ccc(F)cc1 [CERIVASTATIN] |  | 7 nM | 4.1 |  |  |  | 25 nM | 3.6 | 
24 | CC[C@H](C)C(=O)O[C@H]1C[C@H](O)C=C2C=C[C@H](C)[C@H](CC[C@@H](O)C[C@@H](O)CC(=O)O)[C@H]21 [PRAVASTATIN] |  |  | 444 |  |  |  | 100 nM | 0.01 | 10.9%
25 | CC(C)c1nc(N(C)S(C)(=O)=O)nc(-c2ccc(F)cc2)c1/C=C/[C@@H](O)C[C@@H](O)CC(=O)O [ROSUVASTATIN] | 3.7 nM |  | 926 |  | 82.4% | 62% | 75 nM | 0.3 | 
26 | CCC(C)(C)C(=O)O[C@H]1C[C@@H](C)C=C2C=C[C@H](C)[C@H](CC[C@@H]3C[C@@H](O)CC(=O)O3)[C@H]21 [SIMVASTATIN] |  | 150 nM |  |  |  |  | 120 nM |  | 18.2%
